In patent US7687643B2, “Process for preparing 3,3-dimethylindolines” (Amgen Inc., priority 2001, dated 2010) one finds IC50 data, which are given here for 26 compounds.

Where only a bound is given, the exact number is not on record here.

The subject of this experiment is Human Umbilical Vein Endothelial cells (VEGF-stimulated). The experiment can be described thus: HUVEC proliferation assay, VEGF-stimulated. The format is cell-based. The note with it: VEGF 50 ng/mL, 72 h, CyQuant, read-out: inhibited VEGF-stimulated HUVEC proliferation at a level. Here is the method: Human Umbilical Vein Endothelial cells are purchased from Clonetics, Inc., as cryopreserved cells harvested from a pool of donors. These cells, at passage 1, are thawed and expanded in EBM-2 complete medium, until passage 2 or 3. The cells are trypsinized, washed in DMEM+10% FBS+antibiotics, and spun at 1000 rpm for 10 min. Prior to centrifugation of the cells, a small amount is collected for a cell count. After centrifugation, the medium is discarded, and the cells are resuspended in the appropriate volume of DMEM+10% FBS+antibiotics to achieve a concentration of 3×10^5 cells/mL. Another cell count is performed to confirm the cell concentration. The cells are diluted to 3×10^4 cells/mL in DMEM+10% FBS+antibiotics, and 100 μL of cells are added to a 96-well plate. The cells are incubated at 37° C. for 22 h.
Prior to the completion of the incubation period, compound dilutions are prepared. Five-point, five-fold serial dilutions are prepared in DMSO, at concentrations 400-fold greater than the final concentrations desired. 2.5 μL of each compound dilution are diluted further in a total of 1 mL DMEM+10% FBS+antibiotics (400× dilution). Medium containing 0.25% DMSO is also prepared for the 0 μM compound sample. At the 22-hour timepoint, the medium is removed from the cells, and 100 μL of each compound dilution is added. The cells are incubated at 37° C. for 2-3 h.
During the compound pre-incubation period, the growth factors are diluted to the appropriate concentrations. Solutions of DMEM+10% FBS+antibiotics, containing either VEGF or bFGF at the following concentrations: 50, 10, 2, 0.4, 0.08, and 0 ng/mL are prepared. For the compound-treated cells, solutions of VEGF at 550 ng/mL or bFGF at 220 ng/mL for 50 ng/mL or 20 ng/mL final concentrations, respectively, are prepared since 10 μL of each will be added to the cells (110 μL final volume). At the appropriate time after adding the compounds, the growth factors are added. VEGF is added to one set of plates, while bFGF is added to another set of plates. For the growth factor control curves, the media on wells B4-G6 of plates 1 and 2 are replaced with media containing VEGF or bFGF at the varying concentrations (50-0 ng/mL). The cells are incubated at 37° C. for an additional 72 h.
At the completion of the 72 h incubation period, the medium is removed, and the cells are washed twice with PBS. After the second wash with PBS, the plates are tapped gently to remove excess PBS, and the cells are placed at −70° C. for at least 30 min. The cells are thawed and analyzed using the CyQuant fluorescent dye (Molecular Probes C-7026), following the manufacturer's recommendations. The plates are read on a Victor/Wallac 1420 workstation at 485 nm/530 nm (excitation/emission). Raw data are collected and analyzed using a 4-parameter fit equation in XLFit. IC50 values are then determined.

For `O=C(Nc1ccc(C(F)(F)F)c(OCCN2CCCC2)c1)c1cccnc1NCc1ccncn1` [Example 1024, 2-((4-Pyrimidinylmethyl)amino)-N-(3-((2-(1-pyrrolidinyl)ethyl)oxy)-4-(trifluoromethyl)phenyl)-3-pyridinecarboxamide], the IC50 is less than 0.05 µM.

For `CN1CCC(COc2cc(NC(=O)c3cccnc3NCc3ccncc3)ccc2C(F)(F)C(F)(F)F)CC1` [Example 954, N-[3-(1-Methyl-piperidin-4-ylmethoxy)-4-pentafluoroethyl-phenyl]-2-[(pyridin-4-ylmethyl)-amino]-nicotinamide], the IC50 is less than 0.05 µM.

For `CNc1nccc(CNc2ncccc2C(=O)Nc2cc(OC[C@H]3CCCN3C)cc(C(F)(F)F)c2)n1` [Example 1044, 2-(((2-(methylamino)-4-pyrimidinyl)methyl)amino)-N-(3-((((2R)-1-methyl-2-pyrrolidinyl)methyl)oxy)-5-(trifluoromethyl)phenyl)-3-pyridinecarboxamide], the IC50 is less than 0.05 µM.

As for `CNc1nccc(CNc2ncccc2C(=O)Nc2ccc3c(c2)NCCC3(C)C)n1` [Example 1112, N-(4,4-Dimethyl-1,2,3,4-tetrahydro-quinolin-7-yl)-2-[(2-methylamino-pyrimidin-4-ylmethyl)-amino]-nicotinamide], the IC50 was less than 0.05 µM.

Regarding `COc1cc(CNc2ncccc2C(=O)Nc2ccc(C(C)(C)C)c(OC[C@@H]3CCCN3)c2)ccn1` [Example 1067, N-(4-(1,1-dimethylethyl)-3-(((2S)-2-pyrrolidinylmethyl)oxy)phenyl)-2-(((2-(methyloxy)-4-pyridinyl)methyl)amino)-3-pyridinecarboxamide], the IC50 was less than 0.05 µM.

In the case of `CN(C)CC(=O)N1CC(C)(C)c2ccc(NC(=O)c3cccnc3NCc3ccnc4ccccc34)cc21` [Example 1030, N-(1-(N,N-Dimethylglycyl)-3,3-dimethyl-2,3-dihydro-1H-indol-6-yl)-2-((4-quinolinylmethyl)amino)-3-pyridinecarboxamide], the IC50 is less than 0.05 µM.

`CNc1cc(CNc2ncccc2C(=O)Nc2cc(O[C@@H]3CCOC3)cc(C(F)(F)F)c2)ccn1` [Example 1083, 2-(((2-(methylamino)-4-pyridinyl)methyl)amino)-N-(3-((3R)-tetrahydro-3-furanyloxy)-5-(trifluoromethyl)phenyl)-3-pyridinecarboxamide]: the IC50 was less than 0.05 µM.

Take `CS(=O)(=O)NCCOc1cc(NC(=O)c2cccnc2NCc2ccncc2)ccc1C(F)(F)F` [Example 1032, N-(3-((2-((Methylsulfonyl)amino)ethyl)oxy)-4-(trifluoromethyl)phenyl)-2-((4-pyridinylmethyl)amino)-3-pyridinecarboxamide]: the IC50 was less than 0.05 µM.

As for `O=C(Nc1ccc2c(c1)N(CCN1CCCCC1)CC2)c1cccnc1NCc1ccncc1` [Example 130, N-[1-(2-Piperidylethyl)indolin-6-yl]{2-[(4-pyridylmethyl)amino](3-pyridyl)}carboxamide], the IC50 is less than 0.05 µM.

As to `CC(C)c1ccc(NC(=O)c2cc(F)cnc2NCc2ccncc2)cc1` [Example 67, {5-Fluoro-2-[(4-pyridylmethyl)amino](3-pyridyl)}-N-[4-(isopropyl)phenyl]carboxamide], the IC50 was less than 0.05 µM.

`CC1(C)CNc2cc(NC(=O)c3cccnc3NCc3ccncc3)ccc2O1` [Example 995, N-(2,2-Dimethyl-3,4-dihydro-2H-benzo[1,4]oxazin-6-yl)-2-[(pyridin-4-ylmethyl)-amino]-nicotinamide]: the IC50 was less than 0.05 µM.

As for `CS(=O)(=O)NCCOc1cc(NC(=O)c2cccnc2NCc2ccncc2)ccc1C(F)(F)C(F)(F)F` [Example 1031, N-(3-((2-((Methylsulfonyl)amino)ethyl)oxy)-4-(pentafluoroethyl)phenyl)-2-((4-pyridinylmethyl)amino)-3-pyridinecarboxamide], the IC50 was less than 0.05 µM.

For the compound `CC1(C)CN(Cc2cc[n+]([O-])cc2)c2cc(NC(=O)c3cccnc3NCc3ccncc3)ccc21` [Example 1099, N-[3,3-Dimethyl-1-(1-oxy-pyridin-4-ylmethyl)-2,3-dihydro-1H-indol-6-yl]-2-[(pyridin-4-ylmethyl)-amino]-nicotinamide], the IC50 was less than 0.05 µM.

Take `O=C(Nc1cccc(C(F)(F)F)c1)c1ccc(F)nc1NCc1ccncc1` [Example 156, {6-Fluoro-2-[(4-pyridylmethyl)amino](3-pyridyl)}-N-[3-(trifluoromethyl)phenyl]carboxamide]: the IC50 was less than 0.05 µM.

Consider `CNc1nccc(CNc2ncccc2C(=O)Nc2ccc(C(C)(C)C3CCN(C)CC3)cc2)n1` [Example 1043, 2-(((2-(methylamino)-4-pyrimidinyl)methyl)amino)-N-(4-(1-methyl-1-(1-methyl-4-piperidinyl)ethyl)phenyl)-3-pyridinecarboxamide], for which the IC50 was less than 0.05 µM.

Consider `CCOC(=O)N1CC2(CC2)c2ccc(NC(=O)c3cccnc3NCc3ccnc(NC)n3)cc21` [Example 1108, Ethyl [1,2-dihydro-6-({2-[(2-methylamino-pyrimidin-4-ylmethyl)-amino]-pyridine-3-carbonyl}-amino)-3-spiro-1′-cyclopropyl-1H-indole]-1-carbamate], for which the IC50 was less than 0.05 µM.

With `O=C(Nc1ccc(C(F)(F)F)c(OCCN2CCCC2)c1)c1cccnc1NCc1ccnc2ccccc12` [Example 1021, N-(3-((2-(1-pyrrolidinyl)ethyl)oxy)-4-(trifluoromethyl)phenyl)-2-((4-quinolinylmethyl)amino)-3-pyridinecarboxamide], the IC50 was less than 0.05 µM.

Turning to `CNc1cc(CNc2ncccc2C(=O)Nc2cc(OC[C@@H]3CCCN3C)cc(C(F)(F)F)c2)ccn1` [Example 1143, 2-[(2-Methylamino-pyridin-4-ylmethyl)-amino]-N-[3-(1-methyl-pyrrolidin-2-ylmethoxy)-5-trifluoromethyl-phenyl]-nicotinamide], the IC50 is less than 0.05 µM.

For the compound `O=C(Nc1ccc(C(F)(F)F)c(OCCN2CCCC2)c1)c1cccnc1NCc1ccncc1` [Example 982, 2-[(Pyridin-4-ylmethyl)-amino]-N-[3-(2-pyrrolidin-1-yl-ethoxy)-4-trifluoromethyl-phenyl]-nicotinamide], the IC50 is less than 0.05 µM.

Turning to `CC(C)c1ccc(NC(=O)c2cccnc2NCc2ccnc3ccccc23)cc1` [Example 167, N-[4-(Isopropyl)phenyl]{2-[(4-quinolylmethyl)amino](3-pyridyl)}carboxamide], the IC50 is less than 0.05 µM.

`CC(C)c1ccc(NC(=O)c2ccc(F)nc2NCc2ccncc2)cc1` [Example 155, {6-Fluoro-2-[(4-pyridylmethyl)amino](3-pyridyl)}-N-[4-(isopropyl)phenyl]carboxamide]: the IC50 is less than 0.05 µM.

As to `CC1(C)CN(C[C@@H]2CCCN2)c2cc(NC(=O)c3cccnc3NCc3ccncc3)ccc21` [Example 1176, N-(3,3-Dimethyl-1-pyrrolidin-(2S)-ylmethyl-2,3-dihydro-1H-indol-6-yl)-2-[(pyridin-4-ylmethyl)-amino]-nicotinamide], the IC50 was less than 0.05 µM.

Regarding `CC1(C)Oc2ccc(NC(=O)c3cccnc3NCc3ccncc3)cc2NC1=O` [Example 944, N-(2,2-Dimethyl-3-oxo-3,4-dihydro-2H-benzo[1,4]oxazin-6-yl)-2-[(pyridin-4-ylmethyl)-amino]-nicotinamide], the IC50 was less than 0.05 µM.

Consider `O=C(Nc1ccc(-c2ccccc2)cc1)c1cccnc1NCc1ccncc1` [Example 159, N-(4-Biphenyl){2-[(4-pyridylmethyl)amino](3-pyridyl)}carboxamide], for which the IC50 is less than 0.05 µM.

In the case of `CNc1nccc(CNc2ncccc2C(=O)Nc2cc(OC[C@@H]3CCCN3C)cc(C(F)(F)F)c2)n1` [Example 1144, 2-[(2-Methylamino-pyrimidin-4-ylmethyl)-amino]-N-[3-(1-methyl-pyrrolidin-2-ylmethoxy)-5-trifluoromethyl-phenyl]-nicotinamide], the IC50 is less than 0.05 µM.

As for `O=C(Nc1cccc(C(F)(F)F)c1)c1cccnc1NCc1ccc2ncccc2c1` [Example 169, {2-[(6-Quinolylmethyl)amino](3-pyridyl)}-N-[3-(trifluoromethyl)phenyl]carboxamide], the IC50 is less than 0.05 µM.
